Assay results published in the supplement of paper PMC10307832.

Legend:
Experiment in all cases: relative viability (nuclei count vs DMSO), 5 days (fraction); higher = more cells survive
VX-702 + Linsitinib = compound: NC(=O)c1ccc(N(C(N)=O)c2c(F)cccc2F)nc1-c1ccc(F)cc1F [VX-702] + C[C@]1(O)C[C@@H](c2nc(-c3ccc4ccc(-c5ccccc5)nc4c3)c3c(N)nccn32)C1 [Linsitinib] (partner 1 µM)
How it was run: (§1)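 Relative viability is defined as nuclei in treated wells over nuclei in vehicle wells. Duplicate plates were run and medians reported. Lung cancer cell lines in 1536-well plates were dosed by pin tool one day after seeding, with one drug or with a fixed anchor-drug dose plus five library-drug doses (not always all listed) in √10 steps, and nuclei were counted after 5 days.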

VX-702 + Decitabine = compound: NC(=O)c1ccc(N(C(N)=O)c2c(F)cccc2F)nc1-c1ccc(F)cc1F [VX-702] + Nc1ncn([C@H]2C[C@H](O)[C@@H](CO)O2)c(=O)n1 [Decitabine] (partner 2 µM)
How it was run: as §1

VX-702 + Trametinib = compound: NC(=O)c1ccc(N(C(N)=O)c2c(F)cccc2F)nc1-c1ccc(F)cc1F [VX-702] + CC(=O)Nc1cccc(-n2c(=O)n(C3CC3)c(=O)c3c(Nc4ccc(I)cc4F)n(C)c(=O)c(C)c32)c1 [Trametinib] (partner 0.02 µM)
How it was run: as §1

Dabrafenib + Luminespib = compound: CC(C)(C)c1nc(-c2cccc(NS(=O)(=O)c3c(F)cccc3F)c2F)c(-c2ccnc(N)n2)s1 [Dabrafenib] + CCNC(=O)c1noc(-c2cc(C(C)C)c(O)cc2O)c1-c1ccc(CN2CCOCC2)cc1 [Luminespib] (partner 0.01 µM)
How it was run: as §1

Cell Line	relative viability (VX-702 + Linsitinib; first compound 0.02 µM)	relative viability (VX-702 + Linsitinib; first compound 0.2 µM)	relative viability (VX-702 + Linsitinib; first compound 0.6325 µM)	relative viability (VX-702 + Linsitinib; first compound 2 µM)	relative viability (VX-702 + Decitabine; first compound 0.02 µM)	relative viability (VX-702 + Decitabine; first compound 0.2 µM)	relative viability (VX-702 + Decitabine; first compound 0.6325 µM)	relative viability (VX-702 + Decitabine; first compound 2 µM)	relative viability (VX-702 + Trametinib; first compound 0.02 µM)	relative viability (VX-702 + Trametinib; first compound 0.2 µM)	relative viability (VX-702 + Trametinib; first compound 0.6325 µM)	relative viability (VX-702 + Trametinib; first compound 2 µM)	relative viability (Dabrafenib + Luminespib; first compound 0.009487 µM)	relative viability (Dabrafenib + Luminespib; first compound 0.03 µM)	relative viability (Dabrafenib + Luminespib; first compound 0.3 µM)	relative viability (Dabrafenib + Luminespib; first compound 0.003 µM)	relative viability (Dabrafenib + Luminespib; first compound 0.09487 µM)
IA-LM	0.585	0.723	0.606	0.557													
EBC-1	1.07	0.935	0.914	0.993													
NCI-H727	0.516	0.271	0.259	0.306	0.827	0.914	0.753	0.822	0.387	0.381	0.382	0.359	0.339	0.324	0.414		
NCI-H1395	0.965	1.28	0.976	1.47	0.664	0.714	0.728	0.64	1.06	1.11	1.09	1.24	0.755	0.661	0.567	0.663	0.657
NCI-H2126	0.726	0.697	0.67	0.634	0.547	0.567	0.566	0.595	0.511	0.542	0.547	0.544	0.878	0.965	0.913	0.964	0.936
LCLC-97TM1	0.131	0.189	0.172	0.207	0.241	0.232	0.232	0.228	0.197	0.192	0.185	0.202	0.745	0.584	0.775	0.764	0.756
NCI-H460	0.879	0.837	0.825	0.814	0.522	0.494	0.599	0.469	0.209	0.172	0.166	0.0854	0.0312	0.0334	0.0437	0.0327	0.042
NCI-H1650					0.477	0.422	0.44	0.46	0.599	0.725	0.656	0.501	0.201	0.229	0.188	0.172	0.221
NCI-H1993	0.712	0.718	0.745	0.8	0.529	0.603	0.54	0.578	0.607	0.495	0.527	0.576	0.984	0.812	1.06	0.68	0.828
NCI-H522					0.684	0.775	0.646	0.753	0.736	0.759	0.708	0.74	1.05	1.11	1.3		
HCC-78	0.448	0.508	0.427	0.492	0.744	0.669	0.715	0.665	0.53	0.861	0.741	0.801					
HCC-44	0.618	0.671	0.617	0.65	1	0.969	1.02	0.924	1.11	1.06	1.05	1.1	1.01	1.17	0.861	1.12	0.98
LXF-289	0.941	0.961	0.931	0.96	0.313	0.403	0.381	0.357	0.718	0.648	0.691	0.703	0.73	0.675	0.752	0.651	0.589
201T	0.958	1.03	0.986	0.987	0.86	0.838	0.871	0.886	0.733	0.756	0.744	0.774	1.1	0.967	1.06	1.08	0.983
NCI-H2023	0.568	0.561	0.629	0.612	0.23	0.219	0.211	0.231	0.497	0.458	0.458	0.558	0.817	0.755	0.84	0.866	0.661
Calu-6		0.967	1.09	1.02													
NCI-H1437	1.1	1.02	1.09	1.3	0.618	0.516	0.544	0.607	0.519	0.447	0.464	0.497	1.13	1.17	1.14	1.15	1.17
NCI-H2342					0.788	0.821	0.697	0.754	0.686	1.01	0.871	0.835	0.563	0.707	0.842	0.666	0.769
CAL-12T	0.815	0.898	0.722	0.881					0.368	0.371	0.321	0.329	0.517	0.408	0.32	0.362	0.445
ABC-1	0.661		0.925	1.16	0.923	1.09	1.09	1.31					0.637		0.875	0.67	0.449
NCI-H1703	0.531	0.717	0.937	1.26													
NCI-H2170					0.444	0.415	0.466	0.486	0.999	0.891	0.958	0.987	0.792	0.73	0.604	0.759	0.568
NCI-H1623													0.534	0.479	0.553		0.579
NCI-H2228	0.724	0.671	0.685	0.761					0.485	0.518	0.551	0.602	0.184	0.147	0.165		0.118
